Article PMC3545969, “Mutagenicity and antimutagenicity of (−)-hinokinin a trypanosomicidal compound measured by Salmonella microsome and comet assays” (BMC Complementary and Alternative Medicine, 2012)
Where two headings read alike, the source gives them in different places. Marks after values point to notes of the source that are not given here.

Experiments:
V79 cells = test: Comet assay, antigenotoxicity against DXR in V79 cells; assay type: cell-based, Chinese hamster; set-up: Class 0 / Class 1 / Class 2 / Class 3: unit not given here; details: 3 h
Experimental: Chinese hamster lung fibroblasts (V79) were kindly supplied by Professor Cólus (Universidade Estadual de Londrina (UEL), Paraná, Brazil). Cells were maintained as monolayers in plastic culture flasks (25 cm^2) in HAM-F10 (Sigma-Aldrich) plus DMEM (Sigma-Aldrich, 1:1) culture medium supplemented with 10%; fetal bovine serum (Nutricell), antibiotics (0.01 mg mL^−1 streptomycin and 0.005 mg mL^−1 penicillin; Sigma-Aldrich) and 2.38 mg mL^−1 Hepes (Sigma-Aldrich), at 37°C in a BOD-type chamber. Under these conditions, the average cell cycle time was 12 h.
HK was first dissolved in a mixture of methanol (100 μL) and distilled water (900 μL). The final concentration of methanol in the culture was 0.1%;. The choice of concentrations was based on the results of previous experiments with HK [12]. In the experiments, 3 × 10^5 cells (V79) were seeded into tissue-culture flasks, incubated for two cycles (24 h) in complete HAM-F10/DMEM medium, washed with phosphate buffer saline (PBS), and then subjected to one of the following treatments, in serum-free medium, for 3 h. To assess genotoxicity, the cells were treated with each concentration of HK alone, while for antigenotoxicity, they were treated with the mutagen DXR (0.3 μM) in combination with each HK concentration. Positive (DXR) and negative controls were also included in the test. At the end of the treatment, the cells were washed with ice-cold PBS and trypsinized with 200 μL trypsin. After 3 min, the cells were gently resuspended in complete medium and 20 μL of the cell suspension was immediately used for the test.
The procedures described by Singh et al. were adopted, with minor modifications, as described in detail by Speit and Hartmann and reviewed by Burlinson et al.. Briefly, a microscope slide was covered with a base layer of 1.5%; normal-melting agarose (Invitrogen) and 20 μL of the test cells suspended in 120 μL 0.5%; low-melting agarose (Invitrogen) at 37°C was then spread over the base layer. A coverslip was added and the agarose allowed to solidify at 4°C for 15 min. Next, the coverslip was gently removed and the slides were immersed in freshly prepared lysing solution consisting of 89 mL stock solution (2.5 M NaCl, 100 mM EDTA, 10 mM Tris, pH 10.0, and 1%; sodium lauryl sarcosine), 10 mL DMSO and 1 mL Triton X-100, pH 10.0, at 4°C, for at least 20 h, protected from light. At the end of this period, the slides were transferred to an electrophoresis chamber containing a high pH (>13.0) buffer (300 mM NaOH, 1 mM EDTA) and incubated at 4°C for 20 min to allow the DNA to unwind. A current of 25 V (1.0 V cm^−1, 300 mA) was applied for 20 min. The slides were then submerged in a neutralization buffer (0.4 M Tris - HCl, pH 7.5) for 15 min, dried at room temperature and fixed in 100%; ethanol for 10 min.
The slides were stained with 100 μL ethidium bromide (20 μg ml^−1) and covered with a coverslip. All the slides in the experiment were coded before analysis. The stained nucleoids were immediately evaluated at 1000x magnification under a Nikon fluorescence microscope fitted with a 515–560 nm excitation filter and a 590 nm barrier filter.
For each treatment, the extent and distribution of DNA damage indicated by the comet assay were evaluated by examining 100 randomly selected and non-overlapping cells on the slides (i.e. 300 nucleoids per treatment). For each slide, the cells were visually scored and allocated to one of four classes (0, 1, 2 and 3), according to tail size, as follows: class 0, undamaged, no tail; class 1, a short tail whose length was smaller than the diameter of the comet head (nucleus); class 2, tail length between 1 and 2 times the diameter of the head; and class 3, maximally damaged: a long tail measuring more than twice the diameter of the head. The few comets containing no head and those with almost all DNA in the tail, or with a very wide tail, were excluded from the analysis since they may arise from dead cells. […]

[1] = test system: Salmonella typhimurium TA100
[2] = test system: Salmonella typhimurium TA97a; details: for % inhibition / Number of revertants(M ± SD)/ plate: TA 97a
[3] = test system: S. typhimurium strains TA98, TA100, TA102 and TA97a; details: HK 9.7 - 78.0 μg/plate, +S9 and −S9
[4] = TA 100, + S9, HK 19.5 μg/plate + AFB1 0.5 μg/plate
[5] = TA 100, + S9, HK 39.0 μg/plate + AFB1 0.5 μg/plate
[6] = TA 100, + S9, HK 58.5 μg/plate + AFB1 0.5 μg/plate
[7] = TA 100, + S9, HK 78.0 μg/plate + AFB1 0.5 μg/plate
[8] = TA 100, + S9, HK […] + AFB1 0.5 μg/plate
[9] = TA 100, − S9, HK 19.5 μg/plate + SA 1.25 μg/plate
[10] = TA 100, − S9, HK 39.0 μg/plate + SA 1.25 μg/plate
[11] = TA 100, − S9, HK 58.5 μg/plate + SA 1.25 μg/plate
[12] = TA 100, − S9, HK 78.0 μg/plate + SA 1.25 μg/plate
[13] = TA 100, − S9, HK […] + SA 1.25 μg/plate
[14] = + S9, HK 19.5 μg/plate + 2-AA 1.25 μg/plate
[15] = + S9, HK 39.0 μg/plate + 2-AA 1.25 μg/plate
[16] = + S9, HK 58.5 μg/plate + 2-AA 1.25 μg/plate
[17] = + S9, HK 78.0 μg/plate + 2-AA 1.25 μg/plate
[18] = + S9, HK […] + 2-AA 1.25 μg/plate

O=C1OC[C@H](Cc2ccc3c(c2)OCO3)[C@H]1Cc1ccc2c(c1)OCO2 [HK, (−)-hinokinin]
Class 0 (V79 cells; HK 0.5 μM + DXR 0.3 μM): 73.0 ± 7.0 | Class 1 (V79 cells; HK 0.5 μM + DXR 0.3 μM): 20.0 ± 7.5 | Class 2 (V79 cells; HK 0.5 μM + DXR 0.3 μM): 4.6 ± 1.5 | Class 3 (V79 cells; HK 0.5 μM + DXR 0.3 μM): 2.0 ± 2.0 | Reduction % (of DXR-induced DNA damage) (V79 cells; HK 0.5 μM + DXR 0.3 μM): 76.0% | Score (V79 cells; HK 0.5 μM + DXR 0.3 μM): 36.0 ± 6.1^a,b | Class 0 (V79 cells; HK 1.0 μM + DXR 0.3 μM): 68.0 ± 2.0 | Class 1 (V79 cells; HK 1.0 μM + DXR 0.3 μM): 20.6 ± 2.5 | Class 2 (V79 cells; HK 1.0 μM + DXR 0.3 μM): 8.0 ± 2.0 | Class 3 (V79 cells; HK 1.0 μM + DXR 0.3 μM): 3.3 ± 0.5 | Reduction % (of DXR-induced DNA damage) (V79 cells; HK 1.0 μM + DXR 0.3 μM): 60.8% | Score (V79 cells; HK 1.0 μM + DXR 0.3 μM): 46.0 ± 3.0^a,b | Class 0 (V79 cells; HK 2.0 μM + DXR 0.3 μM): 65.0 ± 6.8 | Class 1 (V79 cells; HK 2.0 μM + DXR 0.3 μM): 27.0 ± 6.6 | Class 2 (V79 cells; HK 2.0 μM + DXR 0.3 μM): 4.3 ± 2.3 | Class 3 (V79 cells; HK 2.0 μM + DXR 0.3 μM): 2.6 ± 1.6 | Reduction % (of DXR-induced DNA damage) (V79 cells; HK 2.0 μM + DXR 0.3 μM): 63.4% | Score (V79 cells; HK 2.0 μM + DXR 0.3 μM): 44.3 ± 9.2^a,b | Class 0 (V79 cells; HK 32 μM + DXR 0.3 μM): 35.0 ± 5.0 | Class 1 (V79 cells; HK 32 μM + DXR 0.3 μM): 33.0 ± 3.0 | Class 2 (V79 cells; HK 32 μM + DXR 0.3 μM): 30.0 ± 4.1^b | Class 3 (V79 cells; HK 32 μM + DXR 0.3 μM): 1.0 ± 1.0 | Score (V79 cells; HK 32 μM + DXR 0.3 μM): 97.0 ± 10.0^a | Class 0 (V79 cells; HK 64 μM + DXR 0.3 μM): 32.0 ± 6.1 | Class 1 (V79 cells; HK 64 μM + DXR 0.3 μM): 39.0 ± 3.7 | Class 2 (V79 cells; HK 64 μM + DXR 0.3 μM): 26.0 ± 2.0 | Class 3 (V79 cells; HK 64 μM + DXR 0.3 μM): 2.0 ± 2.0 | Score (V79 cells; HK 64 μM + DXR 0.3 μM): 97.0 ± 10.0^a | Class 0 (V79 cells; HK […] + DXR 0.3 μM): 28.0 ± 6.6 | Class 1 (V79 cells; HK […] + DXR 0.3 μM): 40.0 ± 1.0 | Class 2 (V79 cells; HK […] + DXR 0.3 μM): 29.0 ± 5.2^b | Class 3 (V79 cells; HK […] + DXR 0.3 μM): 3.0 ± 2.5 | Score (V79 cells; HK […] + DXR 0.3 μM): 106.0 ± 16.0^a | % inhibition [1, 4]: 45*** % | Number of revertants(M ± SD)/ plate [1, 4]: 976 + 18 revertants/plate | % inhibition [1, 5]: 47*** % | Number of revertants(M ± SD)/ plate [1, 5]: 943 + 11 revertants/plate | % inhibition [1, 6]: 71*** % | Number of revertants(M ± SD)/ plate [1, 6]: 612 + 33 revertants/plate | % inhibition [1, 7]: 89*** % | Number of revertants(M ± SD)/ plate [1, 7]: 354 + 22 revertants/plate | % inhibition [1, 8]: 30** % | Number of revertants(M ± SD)/ plate [1, 8]: 1183 + 30 revertants/plate | effect on mutation induced by AFB1 ([1]; TA100, +S9): did inhibit mutation induced by the alkylating agent AFB1 | effect on mutagenesis induced by SA ([1]; TA100, absence of metabolic activation): did not reduce mutagenesis | % inhibition [1, 9]: 9* % | Number of revertants(M ± SD)/ plate [1, 9]: 1112 + 34 revertants/plate | % inhibition [1, 10]: 5* % | Number of revertants(M ± SD)/ plate [1, 10]: 1169 + 32 revertants/plate | % inhibition [1, 11]: 7* % | Number of revertants(M ± SD)/ plate [1, 11]: 1145 + 16 revertants/plate | % inhibition [1, 12]: 3* % | Number of revertants(M ± SD)/ plate [1, 12]: 1181 + 41 revertants/plate | % inhibition [1, 13]: 7* % | Number of revertants(M ± SD)/ plate [1, 13]: 1139 + 20 revertants/plate | % inhibition [2, 14]: 45*** % | Number of revertants(M ± SD)/ plate [2, 14]: 659 + 41 revertants/plate | % inhibition [2, 15]: 49*** % | Number of revertants(M ± SD)/ plate [2, 15]: 628 + 16 revertants/plate | % inhibition [2, 16]: 67*** % | Number of revertants(M ± SD)/ plate [2, 16]: 456 + 13 revertants/plate | % inhibition [2, 17]: 60*** % | Number of revertants(M ± SD)/ plate [2, 17]: 523 + 86 revertants/plate | % inhibition [2, 18]: 43*** % | Number of revertants(M ± SD)/ plate [2, 18]: 682 + 52 revertants/plate | Number of revertants(M ± SD)/ plate ([2]; - S9, HK 19.5 μg/plate + NOPD 10.0 μg/plate): 948 + 24 revertants/plate | Number of revertants(M ± SD)/ plate ([2]; - S9, HK 39.0 μg/plate + NOPD 10.0 μg/plate): 979 + 84 revertants/plate | Number of revertants(M ± SD)/ plate ([2]; - S9, HK 58.5 μg/plate + NOPD 10.0 μg/plate): 1006 + 54 revertants/plate | Number of revertants(M ± SD)/ plate ([2]; - S9, HK 78.0 μg/plate + NOPD 10.0 μg/plate): 1026 + 75 revertants/plate | Number of revertants(M ± SD)/ plate ([2]; - S9, HK […] + NOPD 10.0 μg/plate): 934 + 33 revertants/plate | effect on mutagenesis induced by NOPD ([2]; TA97a, absence of metabolic activation): did not reduce mutagenesis | potentiation of NOPD-induced effect (revertants vs positive control alone) ([2]; strain 97a, −S9, HK + NOPD): potentiated NOPD -induced clastogenicity | mutagenic activity (number of revertant colonies relative to the negative control) [3]: did not induce any increase in the number of revertant colonies
